Test results reported in patent US8524755B2 (priority 2009, dated 2013).

How the values were obtained:
Androgen Receptor = molecular target: T1, Androgen Receptor (Homo sapiens, UniProt P10275); experiment: Androgen Receptor Nuclear Translocation Assay; assay type: cell-based; settings: agonist mode; PathHunter NHRPro cells; 5 h; read-out: AR Nuclear Translocation Assay Agonist Mode EC50
T1 construct: expressed in transfected cells; host or cells: PathHunter NHRPro cell lines
T1 sequence (P10275 1-920): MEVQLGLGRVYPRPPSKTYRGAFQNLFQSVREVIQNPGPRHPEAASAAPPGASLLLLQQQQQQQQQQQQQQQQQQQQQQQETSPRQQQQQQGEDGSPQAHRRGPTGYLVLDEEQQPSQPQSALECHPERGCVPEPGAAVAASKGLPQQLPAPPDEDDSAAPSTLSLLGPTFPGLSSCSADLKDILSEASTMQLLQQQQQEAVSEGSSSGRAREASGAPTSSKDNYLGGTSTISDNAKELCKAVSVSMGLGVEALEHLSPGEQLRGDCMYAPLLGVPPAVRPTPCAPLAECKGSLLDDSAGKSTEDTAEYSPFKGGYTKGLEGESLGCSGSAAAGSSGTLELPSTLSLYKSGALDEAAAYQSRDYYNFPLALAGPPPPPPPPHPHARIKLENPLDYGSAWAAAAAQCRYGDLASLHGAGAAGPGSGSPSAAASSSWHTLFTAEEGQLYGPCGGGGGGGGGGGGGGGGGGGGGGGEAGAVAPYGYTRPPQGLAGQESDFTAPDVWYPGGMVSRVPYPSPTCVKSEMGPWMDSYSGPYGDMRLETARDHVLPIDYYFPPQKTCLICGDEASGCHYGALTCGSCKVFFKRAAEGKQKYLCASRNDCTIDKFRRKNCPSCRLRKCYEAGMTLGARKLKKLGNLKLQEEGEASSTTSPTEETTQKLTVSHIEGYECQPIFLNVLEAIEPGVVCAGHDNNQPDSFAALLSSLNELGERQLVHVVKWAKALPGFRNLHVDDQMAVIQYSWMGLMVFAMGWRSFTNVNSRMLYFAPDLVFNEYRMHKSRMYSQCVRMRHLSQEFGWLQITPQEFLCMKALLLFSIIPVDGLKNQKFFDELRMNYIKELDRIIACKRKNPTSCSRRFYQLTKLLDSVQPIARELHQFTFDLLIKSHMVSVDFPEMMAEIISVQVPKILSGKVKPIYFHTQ
Experimental: Once it was established that the cells were healthy and growing normally, cells were transferred from flasks using trypsin-free cell dissociation buffer and seeded into white walled clear bottom 384-well microplates for compound profiling. For profiling, cells were seeded at a density of 10,000 cells per well in a total volume of 50 μL and were allowed to adhere and recover overnight prior to compound addition. Media contained charcoal-dextran filtered serum to reduce the level of hormones present.
Agonist Format: Intermediate dilution of compound stocks were generated such that 5.5 μL of 10X compound could be added to each well with a final DMSO concentration of 1% of total volume. For profiling compound in agonist mode, the cells were incubated in the presence of compound at 37° C. for 5 h.
Antagonist Format: Agonist dose curves were performed to determine the EC80 value for the following antagonist testing with compounds. 5.5 μL of 10× agonist was added to each well with an equal concentration of vehicle present. EC80 agonist concentration was determined directly from agonist dose curve. For antagonist determination, cells were pre-incubated with antagonist followed by agonist challenge at the EC80 concentration: 5.5 μL of 10× compound added to cells and incubated at 37° C. for 1 h; 5.5 μL of 11× EC80 agonist added to cells and incubated at 37° C. for 5 h.
Signal Detection: After appropriate compound incubation, assay signal was generated through a single addition of 30 μL (50% v/v) of PathHunter Detection reagent cocktail for agonist and antagonist assays respectively followed by 1 h incubation at room temperature. Microplates were read following signal generation with a PerkinElmer ViewLux™ instrument for chemiluminescent signal detection.
Data Analysis: Dose curves in the presence and absence of compound were plotted using GraphPad Prism.

[1] = [14C]RD162′ radio-HPLC metabolite profile in Pooled Rat Plasma; assay type: in vivo, Sprague Dawley rats; settings: [14C]RD162′ 100 mg/kg/day oral, day 7, 4 h
Experimental: The rats were dosed once a day for seven consecutive days; four hours after dosing on the seventh day, plasma was collected from all three rats. The plasma samples were stored at approximately −70° C. or colder.
Positive ion electrospray LC/MS and LC/MS/MS were used to analyze the metabolites.
To prepare the Pooled Rat Plasma for HPLC analysis, approximately 1 g of the plasma sample was combined with acetonitrile (ACN, sample:ACN, 1:3, v:v), vortex mixed, sonicated in cold water, centrifuged, and the supernatants were removed. The extraction was repeated twice and the respective supernatants were combined. […] The combined supernatants were evaporated to dryness and reconstituted in 1 mL of 0.1% formic acid in reverse osmosis (RO) water:ACN: methanol (MeOH, 50:45:5, v:v:v). […] The reconstituted sample was analyzed by HPLC to determine the metabolite profile with fractions collected at 10-second intervals and analyzed by solid scintillation counting.
The prepared samples were analyzed using the following LC/MS/MS conditions: HPLC: Hewlett Packard 1100 series; Mobile Phase: 0.1% formic acid in reverse osmosis water (A) and acetonitrile (B); Column: Agilent Eclipse XDB-C18, 4.6×150 mm, 5 μm; Guard column: Phenomenex Security Guard Cartridge C18, 3×4 mm; Column temperature: 20° C.; Gradient: 20-80% B in 40 min; Flow Rate: 1.5 mL/min.

Norgesterol [reference compound]
EC50 (Androgen Receptor): 2.9 nM

CC1(C)C(=O)N(c2ccc(C#N)c(C(F)(F)F)c2)C(=O)N1c1ccc(C(=O)O)c(F)c1 [(MV), 4-(3-(4-cyano-3-(trifluoromethyl)phenyl)-5,5-dimethyl-2,4-dioxoimidazolidin-1-yl)-2-fluorobenzoic acid]
% Injected Radioactivity (%) [1]: 5.76% | % Recovered Radioactivity (%) [1]: 9.05% | Peak Area (mV) [1]: 308 mV | Peak Height (mV) [1]: 49 mV
